{"source": "patent US20120015907A1", "about": "“Furopyridine compounds and uses thereof” (NOVARTIS AG, priority 2010, published 2012)", "key": {"[1]": {"test_system": "HCV replicon I389luc-ubi-neo/NS3-3'/ET in ET (Huh-lucubineo-ET) cells", "experiment": "Replicon assay (Biological Example 2), luciferase read-out", "assay_type": "cell-based", "conditions": "Hepatitis C virus, luciferase activity 48 hours after compound addition", "description": "A cell line, ET (Huh-lucubineo-ET) is used for screening of compounds for inhibiting HCV RNA dependent RNA polymerase. The ET cell line is stably transfected with RNA transcripts harboring a I389luc-ubi-neo/NS3-3′/ET; replicon with firefly luciferase-ubiquitin-neomycin phosphotransferase fusion protein and EMCV-IRES driven NS3-5B polyprotein containing the cell culture adaptive mutations (E1202G; […]; K1846T) (Krieger at al, 2001 and unpublished). The ET cells are grown in DMEM (Dulbeco's Modified Eagle's Medium), supplemented with 10% fetal calf serum, 2 mM Glutamine, Penicillin (100 IU/mL)/Streptomycin (100 μg/mL), 1× nonessential amino acids, and 250 μg/mL G418 (“Geneticin”). Reagents are all available through Life Technologies (Bethesda, Md.). The cells are plated at 0.5-1.0×10^4 cells/well in the 96 well plates and incubated for 24 hrs before adding test compound. The compounds are added to the cells to achieve a final concentration of 0.1 nM to 50 μM and a final DMSO (dimethylsulfoxide) concentration of 0.5%. Luciferase activity is measured 48 hours later by adding a lysis buffer and the substrate (Catalog number Glo-lysis buffer E2661 and Bright-Glo luciferase system E2620 Promega, Madison, Wis.). Cells should not be too confluent during the assay. Percent inhibition of replication data is plotted relative to no compound control. To determine the EC50 (effective concentration at which 50% of the maximum inhibition is observed), a 10 point, 3-fold serial dilution for each compound is used, which spans a concentration range of 1000 fold. EC50 values were calculated by fitting % inhibition at each concentration to the following equation:\n% inhibition=100%/[(EC50/[I])^b+1]\nwhere b is Hill's coefficient."}, "[2]": {"target": "T1, HCV polymerase (Hepatitis C virus genotype 1b, UniProt Q9WMX2)", "T1 construct": "(His)6 (C)", "experiment": "biochemical", "conditions": "polymerase assay of Biological Example 1; read-out: NS5B polymerase IC50"}}, "data": [{"smiles": "CCc1cc2c(C(=O)NC)c(-c3ccc(F)cc3)oc2nc1N(CCCN1CCCS1(=O)=O)S(C)(=O)=O", "note": "[Example 23.1, 6-{[3-(1,1-Dioxo-isothiazolidin-2-yl)-propyl]-methanesulfonyl-amino}-5-ethyl-2-(4-fluoro-phenyl)-furo[2,3-b]pyridine-3-carboxylic acid methylamide]", "values": [{"measurement": "IC50", "setting": "[1]", "result": "≤ 100", "unit": "nM"}, {"measurement": "IC50", "setting": "[2]", "result": 45, "unit": "nM"}]}, {"smiles": "CCc1cc2c(C(=O)NC)c(-c3ccc(F)cc3)oc2nc1N(CCCN1CCCCS1(=O)=O)S(C)(=O)=O", "note": "[Example 23.7, 6-{[3-(1,1-Dioxo-[1,2]thiazinan-2-yl)-propyl]-methanesulfonyl-amino}-5-ethyl-2-(4-fluorophenyl)-furo[2,3-b]pyridine-3-carboxylic acid methylamide]", "values": [{"measurement": "IC50", "setting": "[1]", "result": "≤ 100", "unit": "nM"}, {"measurement": "IC50", "setting": "[2]", "result": 5, "unit": "nM"}]}, {"smiles": "CCc1cc2c(C(=O)NC)c(-c3ccc(F)cc3)oc2nc1N(CCCS(=O)(=O)C(C)C)S(C)(=O)=O", "note": "[Example 23.91, 5-ethyl-2-(4-fluorophenyl)-6-(N-(3-(isopropylsulfonyl)propyl)methylsulfonamido)-N-methylfuro[2,3-b]pyridine-3-carboxamide]", "values": [{"measurement": "IC50", "setting": "[1]", "result": "≤ 100", "unit": "nM"}, {"measurement": "IC50", "setting": "[2]", "result": 18, "unit": "nM"}]}, {"smiles": "CCc1cc2c(C(=O)NC)c(-c3ccc(F)cc3)oc2nc1N(CCCCS(=O)(=O)C(C)C)S(C)(=O)=O", "note": "[Example 23.92, 5-ethyl-2-(4-fluorophenyl)-6-(N-(4-(isopropylsulfonyl)butyl)methylsulfonamido)-N-methylfuro[2,3-b]pyridine-3-carboxamide]", "values": [{"measurement": "IC50", "setting": "[1]", "result": "≤ 100", "unit": "nM"}, {"measurement": "IC50", "setting": "[2]", "result": 11, "unit": "nM"}]}, {"smiles": "CCc1cc2c(C(=O)NC)c(-c3ccc(F)cc3)oc2nc1N(CCCCN1CCC[C@H]1C(=O)O)S(C)(=O)=O", "note": "[Example 23.98, (S)-1-(4-(N-(5-ethyl-2-(4-fluorophenyl)-3-(methylcarbamoyl)furo[2,3-b]pyridin-6-yl)methylsulfonamido)butyl) pyrrolidine-2-carboxylic acid]", "values": [{"measurement": "IC50", "setting": "[1]", "result": "≥ 5000", "unit": "nM"}, {"measurement": "IC50", "setting": "[2]", "result": 166, "unit": "nM"}]}, {"smiles": "CCc1cc2c(C(=O)NC)c(-c3ccc(F)cc3)oc2nc1N(CCCC1C(=O)CCS1(=O)=O)S(C)(=O)=O", "note": "(stereo not drawn) [Example 23.99, 5-Ethyl-2-(4-fluoro-phenyl)-6-{methanesulfonyl-[3-(1,1,3-trioxo-tetrahydrothiophen-2-yl)-propyl]-amino}-furo[2,3-b]pyridine-3-carboxylic acid methylamide]", "values": [{"measurement": "IC50", "setting": "[1]", "result": "≤ 100", "unit": "nM"}, {"measurement": "IC50", "setting": "[2]", "result": 26, "unit": "nM"}]}, {"smiles": "C=CCCN(CCCN(c1nc2oc(-c3ccc(F)cc3)c(C(=O)NC)c2cc1I)S(C)(=O)=O)S(C)(=O)=O", "note": "[Example 23.994, 6-(N-(3-(N-(but-3-enyl)methylsulfonamido)propyl)methylsulfonamido)-2-(4-fluorophenyl)-5-iodo-N-methylfuro[2,3-b]pyridine-3-carboxamide]", "values": [{"measurement": "IC50", "setting": "[1]", "result": "≤ 100", "unit": "nM"}, {"measurement": "IC50", "setting": "[2]", "result": 57, "unit": "nM"}]}, {"smiles": "CNC(=O)c1c(-c2ccc(C)cc2)oc2nc(N(CCCC(C)(C)C(=O)O)S(C)(=O)=O)c(C3CC3)cc12", "note": "[Example 24, 5-[(5-Cyclopropyl-3-methylcarbamoyl-2-p-tolyl-furo[2,3-b]pyridin-6-yl)-methanesulfonyl-amino]-2,2-dimethyl-pentanoic acid]", "values": [{"measurement": "IC50", "setting": "[1]", "result": "≤ 100", "unit": "nM"}, {"measurement": "IC50", "setting": "[2]", "result": 1, "unit": "nM"}]}, {"smiles": "CNC(=O)c1c(-c2ccc(F)cc2)oc2nc(N(CCCS(C)(=O)=O)S(C)(=O)=O)c(C3CC3)cc12", "note": "[Example 24.01]", "values": [{"measurement": "IC50", "setting": "[1]", "result": "≤ 100", "unit": "nM"}, {"measurement": "IC50", "setting": "[2]", "result": 1, "unit": "nM"}]}, {"smiles": "C=Cc1cc2c(C(=O)NC)c(-c3ccc(F)cc3)oc2nc1N(CCCC(=O)OC)S(C)(=O)=O", "note": "[Example 24.2, methyl 4-(N-(2-(4-fluorophenyl)-3-(methylcarbamoyl)-5-vinylfuro[2,3-b]pyridin-6-yl)methylsulfonamido) butanoate]", "values": [{"measurement": "IC50", "setting": "[1]", "result": "≤ 100", "unit": "nM"}, {"measurement": "IC50", "setting": "[2]", "result": 42, "unit": "nM"}]}, {"smiles": "C=Cc1cc2c(C(=O)NC)c(-c3ccc(F)cc3)oc2nc1N(CCCCC(=O)OC)S(C)(=O)=O", "note": "[Example 24.3, methyl 5-(N-(2-(4-fluorophenyl)-3-(methylcarbamoyl)-5-vinylfuro[2,3-b]pyridin-6-yl)methylsulfonamido) pentanoate]", "values": [{"measurement": "IC50", "setting": "[1]", "result": "≤ 100", "unit": "nM"}, {"measurement": "IC50", "setting": "[2]", "result": 57, "unit": "nM"}]}, {"smiles": "CNC(=O)c1c(-c2ccc(C)cc2)oc2nc(N(CCC[C@@H]3CCCS3(=O)=O)S(C)(=O)=O)c(C3CC3)cc12", "note": "[Example 24.7, 5-Cyclopropyl-6-{[3-((R)-1,1-dioxo-tetrahydrothiophen-2-yl)-propyl]-methanesulfonyl-amino}-2-p-tolyl-furo[2,3-b]pyridine-3-carboxylic acid methylamide]", "values": [{"measurement": "IC50", "setting": "[1]", "result": "≤ 100", "unit": "nM"}, {"measurement": "IC50", "setting": "[2]", "result": 5, "unit": "nM"}]}, {"smiles": "CNC(=O)c1c(-c2ccc(Cl)cc2)oc2nc(N(CCC[C@@H]3CCCS3(=O)=O)S(C)(=O)=O)c(C3CC3)cc12", "note": "[Example 24.8, 2-(4-Chloro-phenyl)-5-cyclopropyl-6-{[3-((R)-1,1-dioxo-tetrahydrothiophen-2-yl)-propyl]-methanesulfonyl-amino}-furo[2,3-b]pyridine-3-carboxylic acid methylamide]", "values": [{"measurement": "IC50", "setting": "[1]", "result": "≤ 100", "unit": "nM"}, {"measurement": "IC50", "setting": "[2]", "result": 1, "unit": "nM"}]}, {"smiles": "CNC(=O)c1c(-c2ccc(C3CC3)cc2)oc2nc(N(CCCS(C)(=O)=O)S(C)(=O)=O)c(C3CC3)cc12", "note": "[Example 24.9, 5-cyclopropyl-2-(4-cyclopropylphenyl)-N-methyl-6-(N-(3-(methylsulfonyl)propyl)methylsulfonamido)furo[2,3-b]pyridine-3-carboxamide]", "values": [{"measurement": "IC50", "setting": "[1]", "result": "≤ 100", "unit": "nM"}, {"measurement": "IC50", "setting": "[2]", "result": 3, "unit": "nM"}]}, {"smiles": "CNC(=O)c1c(-c2ccc(F)cc2)oc2nc(N(CCCOCCOC)S(C)(=O)=O)c(C3CC3)cc12", "note": "[Example 25, 5-cyclopropyl-2-(4-fluorophenyl)-6-(N-(3-(2-methoxyethoxy)propyl)methylsulfonamido)-N-methylfuro[2,3-b]pyridine-3-carboxamide]", "values": [{"measurement": "IC50", "setting": "[1]", "result": "≤ 100", "unit": "nM"}, {"measurement": "IC50", "setting": "[2]", "result": 5, "unit": "nM"}]}, {"smiles": "CNC(=O)c1c(-c2ccc(C)cc2)oc2nc(N(CCCCC(=O)O)S(C)(=O)=O)c(C3CC3)cc12", "note": "[Example 25.1, 5-(N-(5-cyclopropyl-3-(methylcarbamoyl)-2-p-tolylfuro[2,3-b]pyridin-6-yl)methylsulfonamido)pentanoic acid]", "values": [{"measurement": "IC50", "setting": "[1]", "result": "≤ 100", "unit": "nM"}, {"measurement": "IC50", "setting": "[2]", "result": 2, "unit": "nM"}]}, {"smiles": "CNC(=O)c1c(-c2ccc(C)cc2)oc2nc(N(CCCCC(=O)OC)S(C)(=O)=O)c(C3CC3)cc12", "note": "[Example 25.2, methyl 5-(N-(5-cyclopropyl-3-(methylcarbamoyl)-2-p-tolylfuro[2,3-b]pyridin-6-yl)methylsulfonamido) pentanoate]", "values": [{"measurement": "IC50", "setting": "[1]", "result": "≤ 100", "unit": "nM"}, {"measurement": "IC50", "setting": "[2]", "result": 3, "unit": "nM"}]}, {"smiles": "CNC(=O)c1c(-c2ccc(C)cc2)oc2nc(N(CCCS(C)(=O)=O)S(C)(=O)=O)c(C3CC3)cc12", "note": "[Example 25.3, 5-cyclopropyl-N-methyl-6-(N-(3-(methylsulfonyl)propyl)methylsulfonamido)-2-p-tolylfuro[2,3-b]pyridine-3-carboxamide]", "values": [{"measurement": "IC50", "setting": "[1]", "result": "≤ 100", "unit": "nM"}, {"measurement": "IC50", "setting": "[2]", "result": 1, "unit": "nM"}]}, {"smiles": "CNC(=O)c1c(-c2ccc(C3CC3)cc2)oc2nc(N(CCCC3CCCS3(=O)=O)S(C)(=O)=O)c(C3CC3)cc12", "note": "(stereo not drawn) [Example 25.4, 5-Cyclopropyl-2-(4-cyclopropyl-phenyl)-6-{[3-(1,1-dioxo-tetrahydro-thiophen-2-yl)-propyl]-methanesulfonyl-amino}-furo[2,3-b]pyridine-3-carboxylic acid methylamide]", "values": [{"measurement": "IC50", "setting": "[1]", "result": "≤ 100", "unit": "nM"}, {"measurement": "IC50", "setting": "[2]", "result": 1, "unit": "nM"}]}, {"smiles": "CNC(=O)c1c(-c2ccc(Cl)cc2)oc2nc(N(CCCS(C)(=O)=O)S(C)(=O)=O)c(C3CC3)cc12", "note": "[Example 25.5, 2-(4-chlorophenyl)-5-cyclopropyl-N-methyl-6-(N-(3-(methylsulfonyl)propyl)methylsuIfonamido)furo[2,3-b]pyridine-3-carboxamide]", "values": [{"measurement": "IC50", "setting": "[1]", "result": "≤ 100", "unit": "nM"}, {"measurement": "IC50", "setting": "[2]", "result": 1, "unit": "nM"}]}, {"smiles": "CNC(=O)c1c(-c2ccc(C)cc2)oc2nc(N(CCCCS(C)(=O)=O)S(C)(=O)=O)c(C3CC3)cc12", "note": "[Example 25.6, 5-cyclopropyl-N-methyl-6-(N-(4-(methylsulfonyl)butyl)methylsulfonamido)-2-p-tolylfuro[2,3-b]pyridine-3-carboxamide]", "values": [{"measurement": "IC50", "setting": "[1]", "result": "≤ 100", "unit": "nM"}, {"measurement": "IC50", "setting": "[2]", "result": 2, "unit": "nM"}]}, {"smiles": "CNC(=O)c1c(-c2ccc(F)cc2)oc2nc(N(CCCCS(C)(=O)=O)S(C)(=O)=O)c(C3CC3)cc12", "note": "[Example 25.7, 5-cyclopropyl-2-(4-fluorophenyl)-N-methyl-6-(N-(4-(methylsulfonyl)butyl)methylsulfonamido)furo[2,3-b]pyridine-3-carboxamide]", "values": [{"measurement": "IC50", "setting": "[1]", "result": "≤ 100", "unit": "nM"}, {"measurement": "IC50", "setting": "[2]", "result": 1, "unit": "nM"}]}, {"smiles": "CNC(=O)c1c(-c2ccc(Cl)cc2)oc2nc(N(CCCCS(C)(=O)=O)S(C)(=O)=O)c(C3CC3)cc12", "note": "[Example 25.8]", "values": [{"measurement": "IC50", "setting": "[1]", "result": "≤ 100", "unit": "nM"}, {"measurement": "IC50", "setting": "[2]", "result": 1, "unit": "nM"}]}, {"smiles": "CNC(=O)c1c(-c2ccc(C3CC3)cc2)oc2nc(N(CCCCS(C)(=O)=O)S(C)(=O)=O)c(C3CC3)cc12", "note": "[Example 25.9, 5-cyclopropyl-2-(4-cyclopropylphenyl)-N-methyl-6-(N-(4-(methylsulfonyl)butyl)methylsulfonamido)furo[2,3-b]pyridine-3-carboxamide]", "values": [{"measurement": "IC50", "setting": "[1]", "result": "≤ 100", "unit": "nM"}, {"measurement": "IC50", "setting": "[2]", "result": 3, "unit": "nM"}]}]}
